Experimental data reported in US8906946B2, “TRPM8 receptor antagonists” (Dompe' S.p.A., priority 2011, dated 2014).

What was measured:
[1] = Plasma stability, rat; type: in vitro ADME
[2] = molecular target: CYP2D6 (Homo sapiens, UniProt P10635); assay: CYP inhibition 2D6; type: in vitro ADME; conditions: 2D6, 10 μM
[3] = tested on: hepatocytes; assay: Metabolic stability hepatocytes, rat; type: in vitro ADME
[4] = tested on: rhythmic bladder contractions; assay: Isovolumetric bladder model, intravesical protocol; type: in vivo, rat
Protocol: (§1) Female rats were anesthetized with urethane. Ureters were ligated and sectioned. A catheter was inserted through the urinary meatus into the bladder before urethral ligature. Two protocols for testing compounds were used: intravenous (i.v.) or intravesical (i.ves.) administration.
In the second protocol, the bladder was filled first 3 times every 5 min with 100 μL of a solution of solutol/NMP […] containing 0.756 mg of compound (1) or with 100 μL of vehicle, then with 100 μL of saline every 5 min until the occurrence of RBC. A maximal volume of 3 mL was infused. The threshold volume inducing RBC in each group was compared. […] Furthermore, the threshold volume (TV) in the group treated with compound (1) reached 3 mL without RBC occurrence whereas, in the vehicle group, RBC occurred in all rats with a mean volume of 0.7±0.09 ml.

[5] = molecular target: T1, CYP1A2 (Homo sapiens, UniProt P05177); assay: CYP inhibition 1A2; type: in vitro ADME; conditions: 1A2, 10 μM
T1 sequence (P05177 1-516): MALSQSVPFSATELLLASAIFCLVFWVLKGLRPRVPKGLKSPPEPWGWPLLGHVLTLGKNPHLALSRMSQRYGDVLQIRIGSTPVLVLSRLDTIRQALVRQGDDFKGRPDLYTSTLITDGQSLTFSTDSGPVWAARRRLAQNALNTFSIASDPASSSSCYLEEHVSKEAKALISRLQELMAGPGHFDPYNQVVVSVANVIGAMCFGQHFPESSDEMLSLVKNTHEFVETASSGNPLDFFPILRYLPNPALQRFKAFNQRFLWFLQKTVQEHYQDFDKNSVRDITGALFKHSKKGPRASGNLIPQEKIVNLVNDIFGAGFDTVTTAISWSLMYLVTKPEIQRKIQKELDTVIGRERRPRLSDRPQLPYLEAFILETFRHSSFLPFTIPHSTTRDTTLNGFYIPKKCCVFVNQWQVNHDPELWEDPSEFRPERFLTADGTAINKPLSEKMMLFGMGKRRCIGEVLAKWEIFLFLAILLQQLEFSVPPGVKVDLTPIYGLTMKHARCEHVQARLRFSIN

[6] = molecular target: CYP2C19 (Homo sapiens, UniProt P33261); assay: CYP inhibition 2C19; type: in vitro ADME; conditions: 2C19, 10 μM
Sequence of CYP2C19 (P33261 whole entry): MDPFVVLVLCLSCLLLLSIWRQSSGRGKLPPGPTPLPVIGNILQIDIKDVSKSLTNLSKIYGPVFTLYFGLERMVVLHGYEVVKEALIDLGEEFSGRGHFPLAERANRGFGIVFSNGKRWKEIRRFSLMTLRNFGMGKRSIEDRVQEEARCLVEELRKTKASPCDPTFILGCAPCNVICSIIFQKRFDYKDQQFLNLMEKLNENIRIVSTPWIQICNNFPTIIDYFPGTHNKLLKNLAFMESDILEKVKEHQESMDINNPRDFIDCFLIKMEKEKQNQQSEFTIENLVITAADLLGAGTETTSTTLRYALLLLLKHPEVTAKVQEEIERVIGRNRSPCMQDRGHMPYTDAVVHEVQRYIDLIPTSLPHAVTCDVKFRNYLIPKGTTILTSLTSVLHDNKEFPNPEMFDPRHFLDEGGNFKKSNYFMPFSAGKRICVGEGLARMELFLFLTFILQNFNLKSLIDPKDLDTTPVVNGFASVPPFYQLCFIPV

[7] = t1/2 i.v. rat; conditions: in vivo, iv
[8] = tested on: rhythmic bladder contractions; assay: Isovolumetric bladder model, intravenous protocol; type: in vivo, rat; conditions: 10 mg/kg i.v., anesthetized female rats
Protocol: as §1
In the first protocol, the bladder was filled by step of 100 μL of saline every 5 min until the occurrence of rhythmic bladder contractions (RBC). After a 30 min control period, compound (1) dissolved in solutol/NMP solution (2:1 w/w) at a dosage of 10 mg/kg, or vehicle were administered i.v (1 ml in 5 min) […] and the resulting effect was followed for 60 min. For each group, Micturition Frequency (MF) and Amplitude of Micturition (AM) were measured during the control and treatment periods.

[9] = molecular target: T2, hTRPV1 channels (Homo sapiens, UniProt Q8NER1); assay: Selectivity analysis, calcium influx assay, hTRPV1 in HEK293 cells; type: cell-based
T2 construct: expressed in transfected cells; host or cells: HEK293
T2 sequence (Q8NER1 whole entry): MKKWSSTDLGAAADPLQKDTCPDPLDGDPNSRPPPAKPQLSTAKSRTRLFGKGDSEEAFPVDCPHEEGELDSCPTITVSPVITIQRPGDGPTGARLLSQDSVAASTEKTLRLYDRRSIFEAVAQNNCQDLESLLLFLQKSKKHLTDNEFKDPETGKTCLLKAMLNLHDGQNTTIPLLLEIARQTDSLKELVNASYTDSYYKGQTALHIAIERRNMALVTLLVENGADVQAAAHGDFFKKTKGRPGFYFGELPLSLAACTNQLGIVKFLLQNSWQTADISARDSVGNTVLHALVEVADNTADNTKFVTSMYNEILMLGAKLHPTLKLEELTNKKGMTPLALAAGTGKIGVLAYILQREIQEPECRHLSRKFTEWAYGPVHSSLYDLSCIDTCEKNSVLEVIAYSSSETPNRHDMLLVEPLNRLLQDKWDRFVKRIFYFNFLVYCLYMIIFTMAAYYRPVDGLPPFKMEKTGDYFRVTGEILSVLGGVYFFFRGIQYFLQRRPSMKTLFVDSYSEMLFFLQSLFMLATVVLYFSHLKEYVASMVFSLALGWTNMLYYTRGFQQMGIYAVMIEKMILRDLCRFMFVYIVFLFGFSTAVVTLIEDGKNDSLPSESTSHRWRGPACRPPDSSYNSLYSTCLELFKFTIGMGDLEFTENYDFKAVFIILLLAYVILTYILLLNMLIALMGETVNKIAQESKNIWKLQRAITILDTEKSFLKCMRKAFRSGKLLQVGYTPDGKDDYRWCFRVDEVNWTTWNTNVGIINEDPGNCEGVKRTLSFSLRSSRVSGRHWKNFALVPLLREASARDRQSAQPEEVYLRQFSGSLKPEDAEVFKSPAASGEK
Protocol: (§2) The objective of this study was to evaluate the effects in vitro of compound 1 on 3 cloned human channels expressed in HEK293 or CHO cells using the Fluo-8 calcium kit (AAT Bioquest, Inc.), and a Fluorescence Imaging Plate Reader (FLIPR^TETRA™) instrument. The following 3 cloned human channels were evaluated in this study. • 1. Cloned hTRPM8 channels (encoded by the human TRPM8 gene, stably expressed in CHO cells), • 2. Cloned hTRPV1 channels (encoded by the human TRPV1 gene, stably expressed in HEK293 cells), • 3. Cloned hTRPV4 channels (encoded by the human TRPV4 gene, stably expressed in CHO cells).
(§3) The effects of […] (0.001, 0.01, 1, and 10 μM) of compound (1) were evaluated on these three TRP channels (n>3) using the following experimental procedure for each channel tested:
(§4) The ability of compound (1) to act as an antagonist of TRPV1 was evaluated with a calcium influx assay. The signal elicited in the presence of the positive control agonist (0.1 μM capsaicin) was set to 100% and the signal in the presence of the antagonist (5 μM ruthenium red) was set to 0.

[10] = molecular target: CYP2C9 (Homo sapiens, UniProt P11712); assay: CYP inhibition 2C9; type: in vitro ADME; conditions: 2C9, 10 μM
Sequence of CYP2C9 (P11712 whole entry): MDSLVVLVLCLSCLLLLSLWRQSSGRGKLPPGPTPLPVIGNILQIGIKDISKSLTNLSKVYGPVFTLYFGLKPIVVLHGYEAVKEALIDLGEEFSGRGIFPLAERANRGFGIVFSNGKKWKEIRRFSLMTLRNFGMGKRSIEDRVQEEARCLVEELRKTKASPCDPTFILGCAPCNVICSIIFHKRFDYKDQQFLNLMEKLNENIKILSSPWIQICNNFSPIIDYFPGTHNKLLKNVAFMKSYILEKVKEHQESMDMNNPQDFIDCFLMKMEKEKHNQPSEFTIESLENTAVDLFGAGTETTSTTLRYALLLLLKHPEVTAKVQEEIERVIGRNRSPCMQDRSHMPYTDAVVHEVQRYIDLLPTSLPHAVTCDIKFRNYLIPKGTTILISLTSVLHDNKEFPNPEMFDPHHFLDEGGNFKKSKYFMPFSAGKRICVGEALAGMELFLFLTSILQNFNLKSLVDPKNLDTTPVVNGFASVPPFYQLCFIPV

[11] = molecular target: T3, hTRPV4 channels (Homo sapiens, UniProt Q9HBA0); assay: Selectivity analysis, calcium influx assay, hTRPV4 in CHO cells; type: cell-based
T3 construct: expressed in transfected cells; host or cells: CHO
T3 sequence (Q9HBA0 whole entry): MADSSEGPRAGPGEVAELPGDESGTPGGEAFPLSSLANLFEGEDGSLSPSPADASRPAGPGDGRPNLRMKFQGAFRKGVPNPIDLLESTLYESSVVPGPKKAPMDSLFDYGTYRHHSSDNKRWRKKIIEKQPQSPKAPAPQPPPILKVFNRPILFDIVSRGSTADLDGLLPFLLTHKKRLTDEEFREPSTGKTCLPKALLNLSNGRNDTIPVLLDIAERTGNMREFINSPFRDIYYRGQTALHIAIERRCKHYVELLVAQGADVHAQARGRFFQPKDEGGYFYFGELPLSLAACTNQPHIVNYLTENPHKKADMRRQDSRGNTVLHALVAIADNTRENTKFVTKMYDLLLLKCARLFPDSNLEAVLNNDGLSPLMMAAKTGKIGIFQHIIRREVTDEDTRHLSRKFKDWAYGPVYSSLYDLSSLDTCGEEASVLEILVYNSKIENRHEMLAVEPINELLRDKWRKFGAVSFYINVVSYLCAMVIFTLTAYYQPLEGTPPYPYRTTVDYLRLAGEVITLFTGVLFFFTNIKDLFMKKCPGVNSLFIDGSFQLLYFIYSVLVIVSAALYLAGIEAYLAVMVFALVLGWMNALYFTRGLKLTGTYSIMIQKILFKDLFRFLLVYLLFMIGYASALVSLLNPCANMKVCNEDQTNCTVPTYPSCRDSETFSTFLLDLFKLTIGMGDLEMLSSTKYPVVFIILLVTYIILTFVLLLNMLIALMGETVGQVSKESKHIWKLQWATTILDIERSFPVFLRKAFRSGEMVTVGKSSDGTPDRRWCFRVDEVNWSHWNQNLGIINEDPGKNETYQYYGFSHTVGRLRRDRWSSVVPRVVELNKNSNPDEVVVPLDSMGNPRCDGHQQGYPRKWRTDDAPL
Protocol: as §2, §3
as §4, with “TRPV4” for “TRPV1”, “(10” for “(0.1”, “GSK1016790A)” for “capsaicin)”, “0. Values were considered significant if the test article mean was three or more standard deviations away from the positive control agonist mean.” for “0.”

[12] = Plasma stability, human; type: in vitro ADME
[13] = molecular target: CYP3A4 (Homo sapiens, UniProt P08684); assay: CYP inhibition 3A4; type: in vitro ADME; conditions: 3A4, 10 μM
Sequence of CYP3A4 (P08684 whole entry): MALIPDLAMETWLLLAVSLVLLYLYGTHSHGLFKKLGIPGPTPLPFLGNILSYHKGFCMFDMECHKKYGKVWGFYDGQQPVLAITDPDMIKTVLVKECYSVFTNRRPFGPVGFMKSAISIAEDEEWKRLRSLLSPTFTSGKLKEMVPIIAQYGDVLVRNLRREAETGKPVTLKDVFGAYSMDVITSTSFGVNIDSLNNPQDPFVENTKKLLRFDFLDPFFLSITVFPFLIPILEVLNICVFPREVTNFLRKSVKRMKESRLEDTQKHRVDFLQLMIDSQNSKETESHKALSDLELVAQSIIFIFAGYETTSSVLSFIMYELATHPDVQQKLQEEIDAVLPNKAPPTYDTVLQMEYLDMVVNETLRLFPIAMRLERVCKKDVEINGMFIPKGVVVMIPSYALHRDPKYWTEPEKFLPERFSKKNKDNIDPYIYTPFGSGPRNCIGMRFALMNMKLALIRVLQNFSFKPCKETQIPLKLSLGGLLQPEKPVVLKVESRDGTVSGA

Sequence of CYP2D6 (P10635 whole entry): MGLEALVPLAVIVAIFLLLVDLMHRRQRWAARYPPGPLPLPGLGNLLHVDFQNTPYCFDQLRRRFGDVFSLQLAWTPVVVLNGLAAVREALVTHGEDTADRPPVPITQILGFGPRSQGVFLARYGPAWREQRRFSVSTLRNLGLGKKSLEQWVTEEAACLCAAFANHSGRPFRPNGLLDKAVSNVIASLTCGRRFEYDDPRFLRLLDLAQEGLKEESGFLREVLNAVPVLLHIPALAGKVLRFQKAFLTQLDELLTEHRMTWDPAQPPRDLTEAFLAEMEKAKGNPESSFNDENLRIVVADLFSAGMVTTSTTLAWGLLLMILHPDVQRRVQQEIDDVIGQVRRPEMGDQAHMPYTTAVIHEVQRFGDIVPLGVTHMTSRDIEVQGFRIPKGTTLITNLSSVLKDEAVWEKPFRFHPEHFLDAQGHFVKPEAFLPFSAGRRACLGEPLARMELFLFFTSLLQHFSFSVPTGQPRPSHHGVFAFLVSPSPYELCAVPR

Plasma stability (% remaining) @10 μM [1]: 87% | inhibition at 10 µM [2]: 100% | Metabolic stability hepatocytes (% remaining at 120 min @1 μM) [3]: 5.0% | inhibition at 10 µM [5]: 98.8% | inhibition at 10 µM [6]: 55.3% | half-life [7]: 1.05 h | inhibition at 0.001 µM ([9]; HEK293, 0.001 μM, 0.1 μM capsaicin = 100%, 5 μM ruthenium red = 0, read-out: normalized % inhibition TRPV1): -9.14% | inhibition at 0.01 µM ([9]; HEK293, 0.01 μM, 0.1 μM capsaicin, read-out: normalized % inhibition TRPV1): 5.29% | inhibition at 0.1 µM ([9]; HEK293, 0.1 μM, 0.1 μM capsaicin, read-out: normalized % inhibition TRPV1): 2.12% | inhibition at 1 µM ([9]; HEK293, 1 μM, 0.1 μM capsaicin, read-out: normalized % inhibition TRPV1): 5.37% | inhibition at 10 µM ([9]; HEK293, 10 μM, 0.1 μM capsaicin, read-out: normalized % inhibition TRPV1): 4.9% | inhibition of TRPV1 ion channel (in words) ([9]; all the assay concentrations): do not show any relevant inhibition | inhibition at 10 µM [10]: 63.1% | inhibition at 0.001 µM ([11]; 0.001 μM, 10 μM GSK1016790A = 100%, 5 μM ruthenium red = 0, read-out: normalized % inhibition TRPV4): 13.3% | inhibition at 0.01 µM ([11]; 0.01 μM, 10 μM GSK1016790A, read-out: normalized % inhibition TRPV4): 9.03% | inhibition at 0.1 µM ([11]; 0.1 μM, 10 μM GSK1016790A, read-out: normalized % inhibition TRPV4): 12.2% | inhibition at 1 µM ([11]; 1 μM, 10 μM GSK1016790A, read-out: normalized % inhibition TRPV4): 1.97% | inhibition at 10 µM ([11]; 10 μM, 10 μM GSK1016790A, read-out: normalized % inhibition TRPV4): 85.7% | Plasma stability (% remaining) @10 μM [12]: 96% | inhibition at 10 µM [13]: 33.3%
SMILES: Cl.Clc1c(OCCNCc2ccco2)ccc2ccccc12 [Compound 1, 2-[(1-chloronaphthalen-2-yl)oxy]-N-(furan-2-ylmethyl)ethanaminium chloride]
effect on Amplitude of Micturition (AM) [4]: did not change AM | effect on rhythmic bladder contractions (RBC) ([4]; 3 x 100 μL containing 0.756 mg): completely abolished RBC | threshold volume (TV) inducing RBC ([4]; maximal volume infused 3 mL, no RBC occurrence): > 3 mL | time of inhibition of RBC, higher compared to vehicle group [8]: about 300 sec | reduction of Micturition Frequency (MF) ([8]; first 30 min): about 36%
